Laboratory results published in ChEMBL document CHEMBL6120971 (J Med Chem, 2024).

Key:
[1] = molecular target: von Hippel-Lindau disease tumor suppressor/Hepatocyte growth factor receptor (Homo sapiens, UniProt P08581+P40337); assay: PROTAC activity at VHL/c-MET in human MKN-45 cells assessed as induction of c-MET degradation by measuring residual activity at 100 nM incubated for 24 hrs by Western blot analysis (reference value: 100 %); assay type: cell-based
MKN-45 = assay: Antiproliferative activity against human MKN-45 cells incubated for 72 hrs by CCK8 assay; assay type: functional, cell-based; conditions: MKN-45, 72 h

Sequence of von Hippel-Lindau disease tumor suppressor/Hepatocyte growth factor receptor (P40337 whole entry partner): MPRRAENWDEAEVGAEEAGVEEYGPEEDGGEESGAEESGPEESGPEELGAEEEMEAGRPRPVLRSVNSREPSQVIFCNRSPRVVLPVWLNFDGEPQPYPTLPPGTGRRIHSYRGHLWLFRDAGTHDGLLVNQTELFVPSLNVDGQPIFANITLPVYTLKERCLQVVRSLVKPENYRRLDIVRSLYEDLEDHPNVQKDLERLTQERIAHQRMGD
Sequence of von Hippel-Lindau disease tumor suppressor/Hepatocyte growth factor receptor (P08581 25-1390 limits assumed): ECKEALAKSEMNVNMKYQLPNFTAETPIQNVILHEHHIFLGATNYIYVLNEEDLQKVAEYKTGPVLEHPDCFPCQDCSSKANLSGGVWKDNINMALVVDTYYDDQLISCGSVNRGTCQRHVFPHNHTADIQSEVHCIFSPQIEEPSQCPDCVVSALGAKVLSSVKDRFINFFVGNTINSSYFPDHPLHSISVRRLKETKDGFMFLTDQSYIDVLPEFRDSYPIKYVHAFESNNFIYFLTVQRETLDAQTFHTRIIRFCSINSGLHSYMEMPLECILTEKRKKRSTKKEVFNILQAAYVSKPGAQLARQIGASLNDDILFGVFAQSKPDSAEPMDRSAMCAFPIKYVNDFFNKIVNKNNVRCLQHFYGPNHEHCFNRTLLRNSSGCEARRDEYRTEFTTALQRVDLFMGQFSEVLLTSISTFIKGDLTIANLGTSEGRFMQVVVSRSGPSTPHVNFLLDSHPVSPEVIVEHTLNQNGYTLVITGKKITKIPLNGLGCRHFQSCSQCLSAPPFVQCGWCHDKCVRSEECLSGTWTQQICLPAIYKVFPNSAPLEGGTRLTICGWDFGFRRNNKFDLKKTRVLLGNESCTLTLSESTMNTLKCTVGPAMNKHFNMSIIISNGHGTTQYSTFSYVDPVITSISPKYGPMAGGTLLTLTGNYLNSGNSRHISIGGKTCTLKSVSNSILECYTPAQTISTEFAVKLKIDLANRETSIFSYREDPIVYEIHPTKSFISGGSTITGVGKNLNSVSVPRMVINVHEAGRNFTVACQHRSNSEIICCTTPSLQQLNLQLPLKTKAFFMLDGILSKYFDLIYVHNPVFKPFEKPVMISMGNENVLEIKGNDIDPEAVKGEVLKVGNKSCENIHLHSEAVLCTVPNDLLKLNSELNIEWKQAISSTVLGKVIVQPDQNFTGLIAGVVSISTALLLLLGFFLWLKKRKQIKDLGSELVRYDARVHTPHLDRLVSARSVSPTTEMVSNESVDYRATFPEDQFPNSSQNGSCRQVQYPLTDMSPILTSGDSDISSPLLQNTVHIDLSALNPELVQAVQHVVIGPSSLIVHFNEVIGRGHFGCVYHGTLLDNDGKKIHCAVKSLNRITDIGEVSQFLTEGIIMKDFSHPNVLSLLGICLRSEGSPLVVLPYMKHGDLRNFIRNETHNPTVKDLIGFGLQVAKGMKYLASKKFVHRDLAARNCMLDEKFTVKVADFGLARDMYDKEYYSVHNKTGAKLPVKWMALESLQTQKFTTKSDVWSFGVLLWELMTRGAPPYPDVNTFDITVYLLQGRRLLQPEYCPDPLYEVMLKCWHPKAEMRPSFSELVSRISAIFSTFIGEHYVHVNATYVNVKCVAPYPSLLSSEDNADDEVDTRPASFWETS

| Compound | Activity [1] [%] | IC50 (MKN-45) [µM] |
| --- | --- | --- |
| Cc1ncsc1-c1ccc([C@H](C)NC(=O)[C@@H]2C[C@@H](O)CN2C(=O)[C@@H](NC(=O)CCCCCCCCCCC(=O)N2CCC(COc3cnc(-c4cccc(Cn5nc(-c6cccc(C#N)c6)ccc5=O)c4)nc3)CC2)C(C)(C)C)cc1 | 56 | 0.149 |
| Cc1ncsc1-c1ccc([C@H](C)NC(=O)[C@@H]2C[C@@H](O)CN2C(=O)[C@@H](NC(=O)CCCCCCCCCCC(=O)N2CCC(n3cc(-c4cnc(N)c(O[C@H](C)c5c(Cl)ccc(F)c5Cl)c4)cn3)CC2)C(C)(C)C)cc1 | 73 | > 0.2 |
| Cc1ncsc1-c1ccc([C@H](C)NC(=O)[C@@H]2C[C@@H](O)CN2C(=O)[C@@H](NC(=O)CCCCCCC(=O)N2CCC(n3cc(-c4cnc(N)c(O[C@H](C)c5c(Cl)ccc(F)c5Cl)c4)cn3)CC2)C(C)(C)C)cc1 | 78 | > 0.2 |
| Cc1ncsc1-c1ccc([C@H](C)NC(=O)[C@@H]2C[C@@H](O)CN2C(=O)[C@@H](NC(=O)CCCCC(=O)N2CCC(COc3cnc(-c4cccc(Cn5nc(-c6cccc(C#N)c6)ccc5=O)c4)nc3)CC2)C(C)(C)C)cc1 | 74 | > 0.2 |
| Cc1ncsc1-c1ccc([C@H](C)NC(=O)[C@@H]2C[C@@H](O)CN2C(=O)[C@@H](NC(=O)CN2CCN(CCCCCC(=O)N3CCC(COc4cnc(-c5cccc(Cn6nc(-c7cccc(C#N)c7)ccc6=O)c5)nc4)CC3)CC2)C(C)(C)C)cc1 | 71 |  |
| Cc1ncsc1-c1ccc([C@H](C)NC(=O)[C@@H]2C[C@@H](O)CN2C(=O)[C@@H](NC(=O)CN2CCN(CC(=O)N3CCC(COc4cnc(-c5cccc(Cn6nc(-c7cccc(C#N)c7)ccc6=O)c5)nc4)CC3)CC2)C(C)(C)C)cc1 | 40 |  |
| Cc1ncsc1-c1ccc([C@H](C)NC(=O)[C@@H]2C[C@@H](O)CN2C(=O)[C@@H](NC(=O)CN2CCN(CCCC(=O)N3CCC(COc4cnc(-c5cccc(Cn6nc(-c7cccc(C#N)c7)ccc6=O)c5)nc4)CC3)CC2)C(C)(C)C)cc1 | 61 |  |
| Cc1ncsc1-c1ccc([C@H](C)NC(=O)[C@@H]2C[C@@H](O)CN2C(=O)[C@@H](NC(=O)CN2CCN(CCCCCC(=O)N3CCC(n4cc(-c5cnc(N)c(O[C@H](C)c6c(Cl)ccc(F)c6Cl)c5)cn4)CC3)CC2)C(C)(C)C)cc1 | 115 |  |
| Cc1ncsc1-c1ccc([C@H](C)NC(=O)[C@@H]2C[C@@H](O)CN2C(=O)[C@@H](NC(=O)CCCCCCC(=O)N2CCC(COc3cnc(-c4cccc(Cn5nc(-c6cccc(C#N)c6)ccc5=O)c4)nc3)CC2)C(C)(C)C)cc1 | 64 | 0.0355 |
| Cc1ncsc1-c1ccc([C@H](C)NC(=O)[C@@H]2C[C@@H](O)CN2C(=O)[C@@H](NC(=O)CCCCC(=O)N2CCC(n3cc(-c4cnc(N)c(O[C@H](C)c5c(Cl)ccc(F)c5Cl)c4)cn3)CC2)C(C)(C)C)cc1 | 100 | > 0.2 |
| Cc1ncsc1-c1ccc([C@H](C)NC(=O)[C@@H]2C[C@@H](O)CN2C(=O)[C@@H](NC(=O)CN2CCN(CCCC(=O)N3CCC(n4cc(-c5cnc(N)c(O[C@H](C)c6c(Cl)ccc(F)c6Cl)c5)cn4)CC3)CC2)C(C)(C)C)cc1 | 111 |  |
| Cc1ncsc1-c1ccc([C@H](C)NC(=O)[C@@H]2C[C@@H](O)CN2C(=O)[C@@H](NC(=O)CN2CCN(CC(=O)N3CCC(n4cc(-c5cnc(N)c(O[C@H](C)c6c(Cl)ccc(F)c6Cl)c5)cn4)CC3)CC2)C(C)(C)C)cc1 | 123 |  |

More lines, now with the values ahead:

| Activity [1] [%] | IC50 (MKN-45) [µM] | Compound |
| --- | --- | --- |
| 73 |  | Cc1ncsc1-c1ccc([C@H](C)NC(=O)[C@@H]2C[C@@H](O)CN2C(=O)[C@@H](NC(=O)COCCOCCOCCNC(=O)c2ccc(-c3cnc4ncc(Cc5ccc6ncccc6c5)n4n3)cc2F)C(C)(C)C)cc1 |
| 78 |  | Cc1ncsc1-c1ccc([C@H](C)NC(=O)[C@@H]2C[C@@H](O)CN2C(=O)[C@@H](NC(=O)CN2CCN(CCCCNC(=O)c3ccc(-c4cnc5ncc(Cc6ccc7ncccc7c6)n5n4)cc3F)CC2)C(C)(C)C)cc1 |
|  | 0.0447 | Cc1ncsc1-c1ccc([C@H](C)NC(=O)[C@@H]2C[C@@H](O)CN2C(=O)[C@@H](NC(=O)CCCCCCCCNC(=O)c2ccc(-c3cnc4ncc(Cc5ccc6ncccc6c5)n4n3)cc2F)C(C)(C)C)cc1 |
| 106 |  | Cc1ncsc1-c1ccc([C@H](C)NC(=O)[C@@H]2C[C@@H](O)CN2C(=O)[C@@H](NC(=O)CCOCCOCCOCCC(=O)N2CCC(n3cc(-c4cnc(N)c(O[C@H](C)c5c(Cl)ccc(F)c5Cl)c4)cn3)CC2)C(C)(C)C)cc1 |
| 107 |  | Cc1ncsc1-c1ccc([C@H](C)NC(=O)[C@@H]2C[C@@H](O)CN2C(=O)[C@@H](NC(=O)CCOCCOCCC(=O)N2CCC(n3cc(-c4cnc(N)c(O[C@H](C)c5c(Cl)ccc(F)c5Cl)c4)cn3)CC2)C(C)(C)C)cc1 |
| 127 |  | Cc1ncsc1-c1ccc([C@H](C)NC(=O)[C@@H]2C[C@@H](O)CN2C(=O)[C@@H](NC(=O)CCOCCOCCOCCOCCC(=O)N2CCC(n3cc(-c4cnc(N)c(O[C@H](C)c5c(Cl)ccc(F)c5Cl)c4)cn3)CC2)C(C)(C)C)cc1 |
| 61 |  | Cc1ncsc1-c1ccc([C@H](C)NC(=O)[C@@H]2C[C@@H](O)CN2C(=O)[C@@H](NC(=O)CN2CCN(CCNC(=O)c3ccc(-c4cnc5ncc(Cc6ccc7ncccc7c6)n5n4)cc3F)CC2)C(C)(C)C)cc1 |
| 66 |  | Cc1ncsc1-c1ccc([C@H](C)NC(=O)[C@@H]2C[C@@H](O)CN2C(=O)[C@@H](NC(=O)CCOCCOCCC(=O)N2CCC(COc3cnc(-c4cccc(Cn5nc(-c6cccc(C#N)c6)ccc5=O)c4)nc3)CC2)C(C)(C)C)cc1 |
| 75 |  | Cc1ncsc1-c1ccc([C@H](C)NC(=O)[C@@H]2C[C@@H](O)CN2C(=O)[C@@H](NC(=O)COCCOCCOCCOCCNC(=O)c2ccc(-c3cnc4ncc(Cc5ccc6ncccc6c5)n4n3)cc2F)C(C)(C)C)cc1 |
| 79 |  | Cc1ncsc1-c1ccc([C@H](C)NC(=O)[C@@H]2C[C@@H](O)CN2C(=O)[C@@H](NC(=O)CN2CCN(CCCCCCNC(=O)c3ccc(-c4cnc5ncc(Cc6ccc7ncccc7c6)n5n4)cc3F)CC2)C(C)(C)C)cc1 |
| 70 |  | Cc1ncsc1-c1ccc([C@H](C)NC(=O)[C@@H]2C[C@@H](O)CN2C(=O)[C@@H](NC(=O)COCCOCCNC(=O)c2ccc(-c3cnc4ncc(Cc5ccc6ncccc6c5)n4n3)cc2F)C(C)(C)C)cc1 |
| 22 | 0.0205 | Cc1ncsc1-c1ccc([C@H](C)NC(=O)[C@@H]2C[C@@H](O)CN2C(=O)[C@@H](NC(=O)CCCCCCCCCNC(=O)c2ccc(-c3cnc4ncc(Cc5ccc6ncccc6c5)n4n3)cc2F)C(C)(C)C)cc1 |
|  | 0.0478 | Cc1ncsc1-c1ccc([C@H](C)NC(=O)[C@@H]2C[C@@H](O)CN2C(=O)[C@@H](NC(=O)CCCCCCCCCCNC(=O)c2ccc(-c3cnc4ncc(Cc5ccc6ncccc6c5)n4n3)cc2F)C(C)(C)C)cc1 |
| 56 |  | Cc1ncsc1-c1ccc([C@H](C)NC(=O)[C@@H]2C[C@@H](O)CN2C(=O)[C@@H](NC(=O)CCOCCOCCOCCC(=O)N2CCC(COc3cnc(-c4cccc(Cn5nc(-c6cccc(C#N)c6)ccc5=O)c4)nc3)CC2)C(C)(C)C)cc1 |
|  | > 0.2 | Cc1ncsc1-c1ccc([C@H](C)NC(=O)[C@@H]2C[C@@H](O)CN2C(=O)[C@@H](NC(=O)CCCCCCNC(=O)c2ccc(-c3cnc4ncc(Cc5ccc6ncccc6c5)n4n3)cc2F)C(C)(C)C)cc1 |
| 62 |  | Cc1ncsc1-c1ccc([C@H](C)NC(=O)[C@@H]2C[C@@H](O)CN2C(=O)[C@@H](NC(=O)CCOCCOCCOCCOCCC(=O)N2CCC(COc3cnc(-c4cccc(Cn5nc(-c6cccc(C#N)c6)ccc5=O)c4)nc3)CC2)C(C)(C)C)cc1 |
